{"source": "paper PMC6019266", "about": "(Biochemistry, 2017)", "key": {"Rv0091": {"target": "Rv0091 (Mycobacterium tuberculosis, UniProt P9WJM3)", "sequence (P9WJM3 whole entry, looked up)": "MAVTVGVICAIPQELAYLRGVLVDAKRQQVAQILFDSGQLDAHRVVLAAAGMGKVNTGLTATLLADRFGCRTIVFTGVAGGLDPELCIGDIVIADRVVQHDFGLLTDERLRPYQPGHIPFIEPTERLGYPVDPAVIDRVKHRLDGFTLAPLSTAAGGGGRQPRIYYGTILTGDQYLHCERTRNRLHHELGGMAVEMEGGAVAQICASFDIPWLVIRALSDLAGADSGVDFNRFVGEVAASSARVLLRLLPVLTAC", "test": "Dissociation constants", "format": "biochemical"}, "Vibrio cholerae": {"tested_on": "Vibrio cholerae", "settings": "cited from earlier work"}, "[1]": {"tested_on": "auto-inducer (AI-2) production", "settings": "cited from earlier work"}, "E. coli": {"tested_on": "E. coli", "settings": "cited from earlier work"}, "[2]": {"tested_on": "M. smegmatis strain mc^2155", "test": "Disc-diffusion growth inhibition assay", "format": "cell-based, Mycobacterium smegmatis", "settings": "96 h, 37 °C"}, "H. pylori (J99)": {"tested_on": "H. pylori (J99)", "test": "Antibacterial activity assay in liquid culture", "format": "cell-based, Helicobacter pylori"}, "[3]": {"tested_on": "M. tuberculosis strain mc^26230", "format": "cell-based, Mycobacterium tuberculosis", "settings": "disc diffusion, 96 h, 37 °C"}}, "note": "Where two headings read alike, the source gives them in different places.", "data": [{"molecule": "CCCCSCC1CN(Cc2c[nH]c3c(N)ncnc23)C[C@H]1O", "note": "(stereo partly drawn) [Compound 13]", "values": [{"measurement": "weaker binding than HT-DADMe-ImmA", "setting": "Rv0091; ratio of dissociation constants", "value": 15, "unit": "times"}, {"measurement": "toxicity to growth", "setting": "Vibrio cholerae", "value": "not toxic"}, {"measurement": "effect on production of auto-inducer (AI-2)", "setting": "[1]", "value": "inhibited production"}, {"measurement": "toxicity to growth", "setting": "E. coli", "value": "not toxic"}]}, {"molecule": "CCCCCCSC[C@H]1CN(Cc2c[nH]c3c(N)ncnc23)C[C@@H]1O", "note": "[Compound 14]", "values": [{"measurement": "zone of clearance", "setting": "[2]; 1000 μg/mL", "value": "small zone of clearance"}, {"measurement": "bound tighter than MT-DADMe-ImmA (11)", "setting": "Rv0091; ratio of Ki values, Table 1", "value": 17, "unit": "times"}, {"measurement": "more potent than tetracycline", "setting": "H. pylori (J99)", "value": 6, "unit": "times"}, {"measurement": "IC50 (antibacterial activity; MIC50 in methods)", "setting": "H. pylori (J99); 72 h, 37 °C, OD600", "value": "0.013 ± 0.0018", "unit": "µg/mL"}, {"measurement": "zone of clearance", "setting": "[3]; 1000 μg/mL", "value": "small zone of clearance"}]}, {"molecule": "CSC[C@@H]1CN(Cc2c[nH]c3c(N)ncnc23)C[C@H]1O", "note": "[Compound 20]", "values": [{"measurement": "activity toward Rv0091", "setting": "Rv0091; at concentrations of ≤400 μM", "value": "no activity"}]}, {"molecule": "NC[C@H]1O[C@H](O[C@H]2[C@H](O)[C@@H](O[C@H]3O[C@H](CO)[C@@H](O)[C@H](N)[C@H]3O)[C@H](N)C[C@@H]2N)[C@H](O)[C@@H](O)[C@@H]1O", "note": "[Kanamycin, reference compound]", "values": [{"measurement": "zone of clearance", "setting": "[2]; 100 μg/mL, antibiotic control", "value": "large zones of clearance"}, {"measurement": "zone of clearance", "setting": "[3]; 100 μg/mL, antibiotic control", "value": "large zones of clearance"}]}]}
